Test results from PMC6199744, “Development of Chemical Proteomics for the Folateome and Analysis of the Kinetoplastid Folateome” (ACS Infectious Diseases, 2018).
Like-named read-outs stand apart in the source and are kept apart here.

Columns and labels:
[1] = system: NGG1 INTERACTING FACTOR 3-LIKE (Tb427tmp.02.5000); assay type: binding; settings: multitargeted bead mixture; free ligand 100 μM; T. brucei lysate; Tb427tmp.02.5000
TbTS = settings: recombinant protein assay; ref 6 (SI); read-out: Ki, recombinant TbTS; cited from earlier work
TB927.8.6460 = test: Multitargeted bead mixture competition; assay type: binding, T. brucei; settings: multitargeted bead mixture; free ligand 100 μM; T. brucei lysate; TB927.8.6460
TB927.8.6760 = test: Multitargeted bead mixture competition; assay type: binding; settings: free ligand 100 μM, T. brucei lysate
[2] = target: DIHYDROFOLATE REDUCTASE-T[…] (TB427.07.5480) (Trypanosoma brucei brucei, UniProt Q27783); test: Multitargeted bead mixture competition; assay type: binding; settings: multitargeted bead mixture; free ligand 100 μM; T. brucei lysate; TB427.07.5480 DHFR-TS
Chain of UniProt Q27783 (Q27783 whole entry): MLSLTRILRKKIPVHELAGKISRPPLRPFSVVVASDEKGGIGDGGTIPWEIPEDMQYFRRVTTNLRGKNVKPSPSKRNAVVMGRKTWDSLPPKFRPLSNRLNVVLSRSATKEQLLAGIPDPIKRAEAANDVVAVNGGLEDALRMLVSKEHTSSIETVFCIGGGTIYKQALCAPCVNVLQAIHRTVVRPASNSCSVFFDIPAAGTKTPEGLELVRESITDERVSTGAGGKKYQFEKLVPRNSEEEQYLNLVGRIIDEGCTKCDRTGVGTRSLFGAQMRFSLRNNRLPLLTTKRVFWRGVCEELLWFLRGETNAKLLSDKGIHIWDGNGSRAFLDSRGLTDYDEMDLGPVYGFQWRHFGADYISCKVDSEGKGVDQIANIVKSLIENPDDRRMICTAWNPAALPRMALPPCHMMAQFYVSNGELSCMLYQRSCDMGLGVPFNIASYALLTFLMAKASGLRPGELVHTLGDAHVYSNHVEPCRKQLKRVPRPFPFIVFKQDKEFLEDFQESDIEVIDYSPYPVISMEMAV

[3] = system: SUCCINYL-COA SYNTHETASE ALPHA SUBUNIT, PUTATIVE (Tb427.03.2230); test: Multitargeted bead mixture competition; assay type: binding; settings: free ligand 100 μM, T. brucei lysate
[4] = target: PTERIDINE REDUCTASE (TB927.8.2210) (Trypanosoma brucei brucei, UniProt O76290); test: Multitargeted bead mixture competition; assay type: binding, T. brucei; settings: multitargeted bead mixture; free ligand 100 μM; T. brucei lysate; TB927.8.2210 PTERIDINE REDUCTASE
Chain of PTERIDINE REDUCTASE (TB927.8.2210) (O76290 entry or part of it): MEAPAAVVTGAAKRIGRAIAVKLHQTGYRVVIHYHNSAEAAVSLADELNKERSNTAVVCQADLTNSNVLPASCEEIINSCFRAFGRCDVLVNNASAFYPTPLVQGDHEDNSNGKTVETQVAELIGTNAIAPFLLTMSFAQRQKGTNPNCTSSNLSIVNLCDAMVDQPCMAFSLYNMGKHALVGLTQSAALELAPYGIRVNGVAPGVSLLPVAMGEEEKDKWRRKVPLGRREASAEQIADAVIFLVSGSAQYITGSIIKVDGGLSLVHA

[5] = system: CHOLINE KINASE (TB427TMP.18.0017); test: Multitargeted bead mixture competition; assay type: binding, T. brucei; settings: multitargeted bead mixture; free ligand 100 μM; T. brucei lysate; TB427TMP.18.0017 CHOLINE KINASE
[6] = system: PROTEIN KINASE, PUTATIVE (Tb427.03.1570); test: Multitargeted bead mixture competition; assay type: binding; settings: free ligand 100 μM, T. brucei lysate
TB927.7.1340 = test: Multitargeted bead mixture competition; assay type: binding; settings: free ligand 100 μM, T. brucei lysate
[7] = system: BRANCHED-CHAIN AMINO ACID AMINOTRANSFERASE, PUTATI (TB427.02.4590); test: Multitargeted bead mixture competition; assay type: binding; settings: free ligand 100 μM, T. brucei lysate
TB11.03.0290 = test: Multitargeted bead mixture competition; assay type: binding, T. brucei; settings: multitargeted bead mixture; free ligand 100 μM; T. brucei lysate; TB11.03.0290
[8] = system: ACETYLTRANSFERASE, PUTATIVE (Tb427.08.3310); test: Multitargeted bead mixture competition; assay type: binding; settings: free ligand 100 μM, T. brucei lysate
[9] = system: IRON/ASCORBATE OXIDOREDUCTASE FAMILY PROTEIN, PUTA (Tb427.02.6180); test: Multitargeted bead mixture competition; assay type: binding, T. brucei; settings: multitargeted bead mixture; free ligand 100 μM; T. brucei lysate; Tb427.02.6180
[10] = target: GLYCERALDEHYDE 3-PHOSPHATE DEHYDROGENASE, GLYCOSOM (TB427.06.4300) (Trypanosoma brucei brucei, UniProt P22512); test: Multitargeted bead mixture competition; assay type: binding, T. brucei; settings: multitargeted bead mixture; free ligand 100 μM; T. brucei lysate; TB427.06.4300 GAPDH
Chain of UniProt P22512 (P22512 whole entry): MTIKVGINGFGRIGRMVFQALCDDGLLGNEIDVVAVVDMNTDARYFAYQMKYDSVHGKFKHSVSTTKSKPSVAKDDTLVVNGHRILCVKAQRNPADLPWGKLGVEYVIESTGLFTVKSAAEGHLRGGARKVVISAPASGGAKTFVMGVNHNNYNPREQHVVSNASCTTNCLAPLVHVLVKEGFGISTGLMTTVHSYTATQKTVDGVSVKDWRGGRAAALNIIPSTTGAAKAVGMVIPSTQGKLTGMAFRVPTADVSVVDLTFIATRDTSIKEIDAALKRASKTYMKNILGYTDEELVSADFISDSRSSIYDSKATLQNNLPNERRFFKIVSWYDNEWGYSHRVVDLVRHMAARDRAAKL

TB427.04.1870 = test: Multitargeted bead mixture competition; assay type: binding; settings: free ligand 100 μM, T. brucei lysate
[11] = target: T1, MTHFS, the 5-formyl-THF-cyclo-ligase (Homo sapiens, UniProt P49914); test: Multitargeted bead mixture competition, HeLa cell extract; assay type: binding; settings: bead mixture; HeLa cell extract
T1 sequence (P49914 1-203): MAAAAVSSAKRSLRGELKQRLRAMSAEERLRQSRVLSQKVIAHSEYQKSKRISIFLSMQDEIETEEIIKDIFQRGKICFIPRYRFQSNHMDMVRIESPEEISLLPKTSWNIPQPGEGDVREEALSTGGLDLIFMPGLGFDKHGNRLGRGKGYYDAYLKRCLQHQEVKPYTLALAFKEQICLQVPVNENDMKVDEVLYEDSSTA

[12] = system: HYPOTHETICAL PROTEIN, CONSERVED (TB427.03.2670); test: Multitargeted bead mixture competition; assay type: binding; settings: free ligand 100 μM, T. brucei lysate
[13] = system: HYPOTHETICAL PROTEIN, CONSERVED (Tb427.10.6100); test: Multitargeted bead mixture competition; assay type: binding; settings: free ligand 100 μM, T. brucei lysate
[14] = system: PHOSPHATIDYLINOSITOL-4-PHOSPHATE 5-KINASE, PUTATIV (TB427.10.3890); test: Multitargeted bead mixture competition; assay type: binding; settings: free ligand 100 μM, T. brucei lysate
PTR1 = target: T2, PTR1 (Leishmania major, UniProt Q01782); test: biochemical; settings: competing free ligand 100 μM; bead = immobilized compound of the row; L. major lysate; read-out: % Inhibition of protein binding to bead, PTR-1, L. major
T2 sequence (Q01782 1-288): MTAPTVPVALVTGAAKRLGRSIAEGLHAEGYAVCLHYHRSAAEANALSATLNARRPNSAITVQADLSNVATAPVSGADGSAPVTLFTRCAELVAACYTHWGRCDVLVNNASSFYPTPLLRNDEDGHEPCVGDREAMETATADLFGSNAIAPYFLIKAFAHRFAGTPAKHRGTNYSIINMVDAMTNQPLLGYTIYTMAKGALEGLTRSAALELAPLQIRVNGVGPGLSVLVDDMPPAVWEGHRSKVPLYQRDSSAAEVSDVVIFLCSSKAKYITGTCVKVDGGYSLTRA

[15] = system: HYPOTHETICAL PROTEIN, CONSERVED (TB427.05.3680); test: Multitargeted bead mixture competition; assay type: binding; settings: free ligand 100 μM, T. brucei lysate
TB09.211.1690 = test: Multitargeted bead mixture competition; assay type: binding; settings: free ligand 100 μM, T. brucei lysate
[16] = system: PEPTIDYL-PROLYL CIS-TRANS ISOMERASE (CYCLOPHILIN- (TB427TMP.211.1350)); test: Multitargeted bead mixture competition; assay type: binding; settings: free ligand 100 μM, T. brucei lysate
DHFR-TS [17] = target: DHFR-TS (Leishmania major, UniProt P07382); test: biochemical; settings: competing free ligand 100 μM; bead = immobilized compound of the row; L. major lysate; read-out: % Inhibition of protein binding to bead, DHFR-TS, L. major
Chain of DHFR-TS (Leishmania major, UniProt P07382) (P07382 whole entry): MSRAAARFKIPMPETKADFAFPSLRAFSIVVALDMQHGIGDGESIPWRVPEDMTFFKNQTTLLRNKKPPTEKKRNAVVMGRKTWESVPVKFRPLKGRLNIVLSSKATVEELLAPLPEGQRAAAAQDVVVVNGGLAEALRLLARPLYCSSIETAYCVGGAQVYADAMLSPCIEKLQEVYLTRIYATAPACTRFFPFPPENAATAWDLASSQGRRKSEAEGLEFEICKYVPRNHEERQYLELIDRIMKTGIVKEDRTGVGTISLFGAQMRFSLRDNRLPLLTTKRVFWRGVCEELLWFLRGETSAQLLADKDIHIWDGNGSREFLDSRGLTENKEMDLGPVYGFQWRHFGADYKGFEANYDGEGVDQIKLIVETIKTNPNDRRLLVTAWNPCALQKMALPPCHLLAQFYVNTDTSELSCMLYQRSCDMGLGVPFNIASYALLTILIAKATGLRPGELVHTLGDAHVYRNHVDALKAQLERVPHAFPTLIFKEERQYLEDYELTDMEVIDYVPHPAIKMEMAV

human enzyme (DHCH) = target: human enzyme (DHCH); parameters: method as in ref 8 (SI); settings: ref 8 (SI); cited from earlier work
leishmania DHCH enzyme = target: leishmania DHCH enzyme; parameters: method as in ref 10 (SI); settings: ref 10 (SI); cited from earlier work
PTR-1 = PTR-1 (Trypanosoma brucei brucei, UniProt O76290); test: Individual bead pull down with competing free ligand; settings: competing free ligand 100 μM; bead = immobilized compound of the row; T. brucei lysate; read-out: % Inhibition of protein binding to bead, PTR-1, T. brucei
Chain of PTR-1 (O76290 entry or part of it): as the sequence (O76290 entry or part of it) above
Source text: (§1) Antifolate compounds were immobilized onto NHS-activated sepharose beads/reverse sepharose beads through amide coupling via either an amino or carboxyl group (see Figure 3). The reaction was monitored by observing the disappearance of test compound by LCMS, after which the unreacted coupling sites were capped with NHS-acetate or aminoethanol.
(§2) Folate metabolizing enzymes are not highly abundant proteins,[19],[20] potentially making their identification by MS difficult. Beads will not only pull down the low abundant high affinity binders but also attract highly abundant, low affinity binders or so-called nonspecific binders. Sometimes, the nonspecific high abundant proteins can mask true binders. The target identification approach used in this study overcomes this issue by performing competition studies. Various concentrations of the free unmodified inhibitor (test compound) were preincubated with the lysate, prior to addition of the beads derivatized with immobilized compounds. Following washing of the bound proteins from the beads and tryptic digest, the peptides were labeled using the TMTs and then pooled. Differences in peptide abundance were analyzed by fragmentation of the isotope-coded isobaric tags in the MS/MS spectra (Figure 5).[9],[11],[12],[21] While the competition experiments with test compound confirm specific binding, it is also possible that some proteins will have a stronger binding interaction with the derivatized beads than the competing test compound, due to subtle differences in the interactions between the immobilized compound and the test compound with the target protein.

DHFR-TS [18] = target: DHFR-TS (Trypanosoma brucei brucei, UniProt Q27783); test: as above; settings: competing free ligand 100 μM; bead = immobilized compound of the row; T. brucei lysate; read-out: % Inhibition of protein binding to bead, DHFR-TS, T. brucei
Chain of DHFR-TS (Trypanosoma brucei brucei, UniProt Q27783) (Q27783 whole entry): as the sequence (Q27783 whole entry) above
Source text: as §1, §2

[19] = system: T. brucei lysate proteins; assay type: binding, Trypanosoma brucei; settings: X016405, bead mixture, free compound 100.0uM, Trypanosoma brucei

For Cc1ccc2nc(N)[nH]c(=O)c2c1Sc1ccncc1 [NTX, nolatrexed], the “percentage of competition from bead binding” value (shortened to “percentage of competition”) [1] is listed as 87%, the Ki (TbTS) is listed as 39.4 nM and the “percentage of competition” value (TB927.8.6460) is listed as 68%. For the same compound, the “percentage of competition” value (TB927.8.6760) was 8%, the “percentage of competition” value [2] was -5% and the “percentage of competition” value [3] was 27%. The “percentage of competition” value [4] was 16%, the “percentage of competition” value [5] was 34% and the “percentage of competition” value [6] was 11%. For the same compound, the “percentage of competition” value (TB927.7.1340) was 11%, the “percentage of competition” value [7] was 9% and the “percentage of competition” value (TB11.03.0290) was 77%. For the same compound, the “percentage of competition” value [8] was 29%, the “percentage of competition” value [9] was 52% and the “percentage of competition” value [10] was 18%. The “percentage of competition” value (TB427.04.1870) was 52%, the “binding to MTHFS” value [11] was “bound MTHFS” and the “percentage of competition” value [12] was 11%. For the same compound, the “percentage of competition” value [13] was 33%, the “percentage of competition” value [14] was 16% and the inhibition at 100 µM (PTR1) was under 50%. The “percentage of competition” value [15] was 38%, the “percentage of competition” value (TB09.211.1690) was -7% and the “percentage of competition” value [16] was 1%. The inhibition at 100 µM (DHFR-TS [17]) was under 50%.
For Nc1nc2c(c(=O)[nH]1)N1C(=O)N(c3ccc(C(=O)NC(CCC(=O)O)C(=O)O)cc3)CC1CN2 (stereo not drawn) [compound 4], the Ki (human enzyme (DHCH)) is given as 18 ± 5 nM and the Ki (leishmania DHCH enzyme) is given as 105 ± 2 nM.
NCCOCCOc1ccc(Cc2cnc(N)nc2N)cc1 [compound 13] gave an inhibition at 100 µM (PTR-1) of 51% and an inhibition at 100 µM (DHFR-TS [18]) of 75%.
NCCCCCOc1cccc(Cc2cnc(N)nc2N)c1 [compound 11] showed an inhibition at 100 µM (PTR-1) of 56% and an inhibition at 100 µM (DHFR-TS [18]) of 87%.
For NCCCCCOc1ccc(Cc2cnc(N)nc2N)cc1 [compound 10], the inhibition at 100 µM (PTR-1) was 77% and the inhibition at 100 µM (DHFR-TS [18]) was 84%.
In the case of Nc1nc(=O)c2nc(CNc3ccc(C(=O)N[C@@H](CCC(=O)O)C(=O)O)cc3)cnc2[nH]1 [Folic acid], the inhibition at 100 µM (PTR-1) is reported as 92%, the inhibition at 100 µM (DHFR-TS [18]) is reported as 77% and the inhibition at 100 µM (DHFR-TS [17]) is reported as 85%.
In the case of Nc1nc(O)c2c(CCc3ccccc3)c[nH]c2n1 [compound 5], the “percentage of competition” value [1] is reported as 6%, the “percentage of competition” value (TB927.8.6460) is reported as 65% and the “abundance relative to vehicle” value ([19]; protein TB427.02.1850) is reported as 0.89. The “abundance relative to vehicle” value ([19]; protein TB427.06.4760) was 1.04, the “abundance relative to vehicle” value ([19]; protein TB427.07.3620) was 1.03 and the “abundance relative to vehicle” value ([19]; protein TB427.08.1880) was 0.84. The “percentage of competition” value (TB927.8.6760) was -71%, the “percentage of competition” value [2] was 5% and the “percentage of competition” value [3] was 51%. The “percentage of competition” value [4] was 93%, the “percentage of competition” value [5] was 49% and the “percentage of competition” value [6] was 60%. The “percentage of competition” value (TB927.7.1340) was -41%, the “percentage of competition” value [7] was -22% and the “percentage of competition” value (TB11.03.0290) was 61%. For the same compound, the “percentage of competition” value [8] was 61%, the “percentage of competition” value [9] was 80% and the “percentage of competition” value [10] was 15%. For the same compound, the “percentage of competition” value (TB427.04.1870) was 50%, the “percentage of competition” value [12] was 54% and the “percentage of competition” value [13] was 77%. For the same compound, the “percentage of competition” value [14] was 49%, the “percentage of competition” value [15] was 70% and the “percentage of competition” value (TB09.211.1690) was -34%. The “percentage of competition” value [16] was -24%.
With NCCOCCOc1cccc(Cc2cnc(N)nc2N)c1 [compound 12] the inhibition at 100 µM (PTR-1) was 51% and the inhibition at 100 µM (DHFR-TS [18]) was 79%.
